Assay results published in US11981669B2, “1,7-naphthyridine derivative and preparation method and use therefor” (CSPC ZHONGQI PHARMACEUTICAL TECHNOLOGY (SHIJIAZHUANG) CO., …, priority 2018, dated 2024).
Marks after values point to notes of the source that are not given here.

Experiments:
[1] = target: PHD1 (Homo sapiens (Human), UniProt Q96KS0); assay: PHD enzyme assay (Eu-VBC TR-fluorescence); type: biochemical
Method: (§1) VHL/elongin B/elongin C were constructed, expressed and purified, and VHL was labeled. PHD1, PHD2 and PHD3 were constructed, expressed and purified. VBC protein was labeled with DELFIA Eu-Labeling Kit. A NeutrAvidin 96-well plate was blocked after the addition of 200 μL Blocker Casein to each well, followed by incubation for 30 min. Each well was washed 3 times by adding 200 μL of washing buffer each time. A 200 nM HIF-1a 556-574 solution was prepared with washing buffer, and 100 μL of the solution was added to each well, followed by incubation for 60 min. Each well was washed 3 times by adding 200 μL of washing buffer each time. A 1 mM Biotin solution was prepared with Blocker Casein, and 100 μL of the solution was added to each well, followed by incubation for 30 min. Each well was washed 3 times by adding 200 μL of washing buffer each time. A 20× compound solution was prepared with PHD reaction buffer, with the final concentration of DMSO being 1%. PHD solutions were prepared with PHD reaction buffer, and the concentrations of PHD1, 2, and 3 solutions were 10 ng/μL, 5 ng/μL, and 15 ng/μL, respectively. 95 μL of the PHD solution was added to each compound well, followed by the addition of 5 μL of the compound solution, 95 μL of the PHD solution was added to each full active well, followed by the addition of 5 μL of the PHD reaction buffer; and 100 μL of the PHD reaction buffer was added to each blank well. After mixing homogeneously, the wells were incubated for 60 min. Each well was washed 3 times by adding 200 μL of washing buffer each time A 1 ng/μL Eu-VBC solution was prepared with Eu-VBC binding buffer, and 100 μL of the solution was added to each well, followed by incubation for 60 min. Each well was washed 6 times by adding 200 μL DELFIA Wash Concentrate each time. 100 μL DELFIA Enhancement Solution was added to each well. A microplate reader was used to read TR-Fluorescence at Ex340 and Em615. The flurescence of the sample wells was recorded as FLUsample, the flurescence of the full active wells was recorded as FLU100%, and the flurescence of the blank well was recorded as FLU0%.

[2] = target: PHD3 (Homo sapiens (Human), UniProt Q9H6Z9); assay: PHD enzyme assay (Eu-VBC TR-fluorescence); type: biochemical
Sequence of PHD3 (Q9H6Z9 whole entry): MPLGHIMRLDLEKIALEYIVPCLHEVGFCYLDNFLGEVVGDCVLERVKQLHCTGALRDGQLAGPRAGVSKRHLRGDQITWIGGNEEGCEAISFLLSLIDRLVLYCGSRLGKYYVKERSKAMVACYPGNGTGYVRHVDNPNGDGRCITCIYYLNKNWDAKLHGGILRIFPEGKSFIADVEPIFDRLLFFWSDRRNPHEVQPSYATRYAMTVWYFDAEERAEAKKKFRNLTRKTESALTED
Method: as §1

[3] = tested on: erythropoietin; assay: Expression of erythropoietin in vivo (plasma EPO ELISA after single oral dose); settings: once; for EPO OD value: plasma 6 hours after administration; for Promotion of expression of erythropoietin in vivo: at 10 mg/kg;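 for all read-outs here: male C57 mice given compound by mouth, five animals per treatment group, with EPO in plasma measured by ELISA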
Method: (2) 30 c57 mice, male, were divided into 6 groups, 5 mice in each treatment group. […] 6 hours after the administration, blood was taken, and plasma was collected for EPO detection with an ELISA kit (R&D Co.).

[4] = target: CYP2C9 (Homo sapiens (Human), UniProt P11712); assay: CYP enzyme inhibition assay; type: in vitro ADME
Sequence of CYP2C9 (P11712 whole entry): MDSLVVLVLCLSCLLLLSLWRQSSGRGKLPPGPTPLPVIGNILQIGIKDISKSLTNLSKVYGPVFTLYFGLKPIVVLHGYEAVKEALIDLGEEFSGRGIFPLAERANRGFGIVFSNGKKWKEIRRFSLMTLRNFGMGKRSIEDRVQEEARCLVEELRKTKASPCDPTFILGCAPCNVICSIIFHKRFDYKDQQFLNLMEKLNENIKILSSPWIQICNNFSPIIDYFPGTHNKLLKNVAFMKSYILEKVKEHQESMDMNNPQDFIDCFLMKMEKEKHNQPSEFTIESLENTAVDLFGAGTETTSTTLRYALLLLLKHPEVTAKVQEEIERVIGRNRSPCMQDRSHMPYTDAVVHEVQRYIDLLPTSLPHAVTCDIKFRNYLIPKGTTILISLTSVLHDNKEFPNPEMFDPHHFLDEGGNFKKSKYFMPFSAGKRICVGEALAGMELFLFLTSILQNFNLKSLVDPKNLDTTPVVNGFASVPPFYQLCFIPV
Description: (§2) The compounds of the present disclosure were subjected to the CYP450 enzyme inhibition assay.

[5] = target: CYP3A4-M (Homo sapiens (Human), UniProt P08684); assay: CYP enzyme inhibition assay; type: in vitro ADME
Sequence of CYP3A4-M (P08684 whole entry): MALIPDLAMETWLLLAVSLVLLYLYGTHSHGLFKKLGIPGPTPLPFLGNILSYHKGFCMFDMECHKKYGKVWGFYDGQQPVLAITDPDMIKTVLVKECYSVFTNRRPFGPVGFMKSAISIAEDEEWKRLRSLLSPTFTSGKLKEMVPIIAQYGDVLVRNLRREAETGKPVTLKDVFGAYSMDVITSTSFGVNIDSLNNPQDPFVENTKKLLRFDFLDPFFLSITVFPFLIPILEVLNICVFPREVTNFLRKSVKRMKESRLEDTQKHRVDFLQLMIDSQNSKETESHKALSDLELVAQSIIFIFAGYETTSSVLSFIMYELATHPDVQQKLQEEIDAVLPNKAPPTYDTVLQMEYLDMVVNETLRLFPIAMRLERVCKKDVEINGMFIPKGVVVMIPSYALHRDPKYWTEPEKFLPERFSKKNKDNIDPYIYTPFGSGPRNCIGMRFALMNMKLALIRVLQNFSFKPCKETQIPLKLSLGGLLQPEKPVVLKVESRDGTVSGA
Description: as §2

[6] = target: CYP2C19 (Homo sapiens (Human), UniProt P33261); assay: CYP enzyme inhibition assay; type: in vitro ADME
Sequence of CYP2C19 (P33261 whole entry): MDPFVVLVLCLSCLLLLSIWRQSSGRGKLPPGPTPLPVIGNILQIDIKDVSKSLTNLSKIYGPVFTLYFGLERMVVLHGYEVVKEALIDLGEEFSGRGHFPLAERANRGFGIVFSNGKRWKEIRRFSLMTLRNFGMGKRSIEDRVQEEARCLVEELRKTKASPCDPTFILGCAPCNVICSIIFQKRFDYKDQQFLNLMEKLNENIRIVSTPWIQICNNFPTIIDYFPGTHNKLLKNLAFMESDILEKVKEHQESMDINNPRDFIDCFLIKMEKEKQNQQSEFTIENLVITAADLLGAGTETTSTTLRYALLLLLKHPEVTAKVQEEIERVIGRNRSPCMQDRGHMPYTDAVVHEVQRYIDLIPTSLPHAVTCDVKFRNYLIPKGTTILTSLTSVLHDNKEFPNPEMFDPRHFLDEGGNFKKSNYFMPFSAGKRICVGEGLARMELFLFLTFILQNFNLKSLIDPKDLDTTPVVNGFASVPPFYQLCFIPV
Description: as §2

[7] = target: CYP2D6 (Homo sapiens (Human), UniProt P10635); assay: CYP enzyme inhibition assay; type: in vitro ADME
Sequence of CYP2D6 (P10635 whole entry): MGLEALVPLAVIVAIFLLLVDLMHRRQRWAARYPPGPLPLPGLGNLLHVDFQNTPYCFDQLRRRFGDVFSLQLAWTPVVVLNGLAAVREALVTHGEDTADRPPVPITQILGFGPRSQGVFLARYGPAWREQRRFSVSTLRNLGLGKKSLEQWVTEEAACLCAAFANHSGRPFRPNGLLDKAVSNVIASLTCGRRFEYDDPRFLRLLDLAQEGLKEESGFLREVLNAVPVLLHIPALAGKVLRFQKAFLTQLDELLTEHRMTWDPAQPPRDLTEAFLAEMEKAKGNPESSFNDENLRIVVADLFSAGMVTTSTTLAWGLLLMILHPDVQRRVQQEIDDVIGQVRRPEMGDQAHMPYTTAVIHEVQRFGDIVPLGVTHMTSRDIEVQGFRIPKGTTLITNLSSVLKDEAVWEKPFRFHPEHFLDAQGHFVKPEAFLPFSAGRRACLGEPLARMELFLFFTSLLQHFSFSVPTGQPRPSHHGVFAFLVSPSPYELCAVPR
Description: as §2

[8] = tested on: rats with residual kidney; assay: SD rat residual kidney experiment; type: in vivo, SD rats; design: Hematocrit / Alanine aminotransferase / Glutamic-oxalacetic transaminase: unit not given here; settings: for Red blood cells / Alanine aminotransferase / Glutamic-oxalacetic transaminase / Hematocrit / Hemoglobin / Hepcidin: three times each week, 15 times, x ± sd; for Red blood cells: blood 24 hours after last administration; for Effect on glutamic-oxalacetic transaminase / Effect on liver glutamic-pyruvic aminotransferase: compared with the blank control group
Method: 79 SD rats were subjected to residual kidney surgery after anesthesia (left kidney was resected, one third of the right kidney was left, and the resected kidney part was weighed to confirm the surgical error). After 4 weeks, 45 surviving rats were subjected to blood cell dection and then assigned according to the HCT value 37 rats in good condition were selected and divided into the following groups: Link-118 (5, 10 mg/kg), Link-121 (5, 10 mg/kg), and FG-4592 (10 mg/kg), 6 rats in each treatment group, and 7 in the model group. 4 rats were assigned to the blank control group. The rats were administered three times each week (administered on Monday, Wednesday, and Friday), for 15 times, and blood was taken 24 hours after the last administration (tested by blood routine, blood biochemistry, hepcidin kit).

[9] = tested on: HIF-1α; assay: Expression of HIF-1α protein in Hep3B cells (western blot, grayscale analysis); type: cell-based, Human; settings: for fold induction at 30 µM: Homo sapiens, 2 h, compound at 30 μM, 10 μM and 3 μM, read-out: HIF-1α level of the compound of the present disclosure/HIF-1α level of blank control
Outline: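 Hep3B human hepatoma cells were treated for 2 h with compound at 30, 10 and 3 μM in DMEM containing 0.5% FBS after overnight culture. Protein levels were measured by western blot with grayscale densitometry.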

[10] = target: hERG channels (Homo sapiens (Human), UniProt Q12809); assay: cell-based; type: cell-based; settings: for Inhibitory effect on hERG current at the highest test concentration: human, 30 μM
Sequence of hERG channels (Q12809 whole entry, the tested form may be a part): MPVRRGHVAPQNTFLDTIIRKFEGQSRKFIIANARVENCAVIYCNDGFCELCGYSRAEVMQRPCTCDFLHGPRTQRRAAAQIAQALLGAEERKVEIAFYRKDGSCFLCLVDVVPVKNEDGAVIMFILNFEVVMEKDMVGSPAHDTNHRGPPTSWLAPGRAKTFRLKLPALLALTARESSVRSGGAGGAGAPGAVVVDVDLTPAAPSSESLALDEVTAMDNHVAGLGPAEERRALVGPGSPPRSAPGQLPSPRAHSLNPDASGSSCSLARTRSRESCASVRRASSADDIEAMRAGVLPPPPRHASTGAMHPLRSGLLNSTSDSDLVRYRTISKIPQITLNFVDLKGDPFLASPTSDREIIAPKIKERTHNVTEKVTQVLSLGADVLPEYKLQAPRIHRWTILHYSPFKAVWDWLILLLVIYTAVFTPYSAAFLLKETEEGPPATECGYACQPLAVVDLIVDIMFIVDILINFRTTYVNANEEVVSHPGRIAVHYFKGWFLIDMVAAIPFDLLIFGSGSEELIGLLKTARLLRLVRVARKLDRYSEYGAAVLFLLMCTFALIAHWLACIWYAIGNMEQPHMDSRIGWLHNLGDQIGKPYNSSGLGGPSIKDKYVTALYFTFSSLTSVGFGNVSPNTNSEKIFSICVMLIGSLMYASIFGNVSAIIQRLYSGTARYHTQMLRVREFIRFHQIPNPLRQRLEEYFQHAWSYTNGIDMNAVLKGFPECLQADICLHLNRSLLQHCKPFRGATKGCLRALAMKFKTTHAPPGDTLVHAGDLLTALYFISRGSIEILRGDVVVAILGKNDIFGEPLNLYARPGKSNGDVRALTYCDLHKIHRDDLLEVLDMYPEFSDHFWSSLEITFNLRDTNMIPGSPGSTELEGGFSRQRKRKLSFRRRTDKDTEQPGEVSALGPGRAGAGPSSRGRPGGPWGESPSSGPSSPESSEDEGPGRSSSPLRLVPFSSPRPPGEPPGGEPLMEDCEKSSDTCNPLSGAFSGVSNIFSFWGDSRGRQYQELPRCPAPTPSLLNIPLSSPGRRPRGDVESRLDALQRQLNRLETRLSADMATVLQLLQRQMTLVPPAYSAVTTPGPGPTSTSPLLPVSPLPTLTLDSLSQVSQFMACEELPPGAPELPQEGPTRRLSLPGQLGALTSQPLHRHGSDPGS
Method: Whole-cell patch clamp technique was used to record hERG current. A cell suspension was added to a 35 mm Petri dish, and the dish was then placed on an inverted microscope stage. After the adherence of cells, they were perfused with extracellular fluid at a flow rate of 1-2 mL/min. A glass microelectrode was drawn by a microelectrode puller in two steps, and the pipette tip resistance was between 2-5 MΩ. After establishing the whole cell recording, the clamp potential was held at −80 mV, followed by depolarization to +60 mV when given voltage stimulation and then repolarization to −50 mV to elicit hERG tail current. All recordings were performed after the current was stable. Extracellular perfusion administration started from a low concentration, staying for 5-10 min at each concentration until the current was stable, and then cells were further perfused with the next concentration.

Sequence of PHD1 (Q96KS0 whole entry): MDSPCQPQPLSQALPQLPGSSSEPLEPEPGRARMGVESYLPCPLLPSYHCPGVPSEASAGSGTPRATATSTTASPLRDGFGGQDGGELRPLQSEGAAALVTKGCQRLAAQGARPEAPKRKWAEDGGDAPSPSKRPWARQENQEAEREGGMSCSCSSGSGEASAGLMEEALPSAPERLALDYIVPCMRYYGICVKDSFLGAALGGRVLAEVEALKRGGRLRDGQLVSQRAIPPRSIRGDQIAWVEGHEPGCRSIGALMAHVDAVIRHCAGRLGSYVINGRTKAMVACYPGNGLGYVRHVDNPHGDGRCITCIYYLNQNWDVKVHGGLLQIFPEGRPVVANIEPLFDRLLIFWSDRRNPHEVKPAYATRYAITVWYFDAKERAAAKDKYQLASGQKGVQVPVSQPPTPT

Effect on PHD1 compared with compounds of Comparative Examples 1-3 [1]	IC50 [1] [nM]	Effect on PHD3 compared with compounds of Comparative Examples 1-3 [2]	IC50 [2] [nM]	IC50 [4] [µM]	IC50 [5] [µM]	IC50 [6] [µM]	IC50 [7] [µM]	Alanine aminotransferase ([8]; 5 mg/kg)	Glutamic-oxalacetic transaminase ([8]; 5 mg/kg)	Alanine aminotransferase ([8]; 10 mg/kg)	Glutamic-oxalacetic transaminase ([8]; 10 mg/kg)	Structure (SMILES)	EPO OD value ([3]; 10 mg/kg)	EPO OD value ([3]; 50 mg/kg)	Promotion of expression of erythropoietin in vivo [3]	Red blood cells ([8]; 5 mg/kg)	Hematocrit ([8]; 5 mg/kg)	Hemoglobin ([8]; 5 mg/kg) [g/L]	Hepcidin ([8]; 5 mg/kg) [ng/mL]	Red blood cells ([8]; 10 mg/kg)	also measured
better effect	40.3	better effect	95.6	> 50	> 50	> 50	> 50	56.40 ± 25.89	130.80 ± 3126	47.5 ± 7.23	12125 ± 16.11	O=C(O)CNC(=O)c1nc(Br)c2nc(Oc3ccccc3)ccc2c1O [Link-121, 2-(2-phenoxy-5-hydroxy-8-bromo-1,7-naphthyridine-6-formamido) Acetic Acid]	C (C represents 2<EPO OD value<3)	D (D represents EPO OD value>3)	significantly promote the expression of erythropoietin	7.68 ± 0.46 10^12/L	43 ± 2.26	150.60 ± 8.62	2.8289 ± 0.7597	8.12 ± 1.11 10^12/L	Hematocrit ([8]; 10 mg/kg): 46.86 ± 629; Hemoglobin ([8]; 10 mg/kg): 163.40 ± 24.44 g/L; Hepcidin ([8]; 10 mg/kg): 2.5494 ± 1.3532 ng/mL; Effect on glutamic-oxalacetic transaminase [8]: no significant effect; Effect on liver glutamic-pyruvic aminotransferase [8]: no significant effect; Effect on HCT in rats with residual kidney ([8]; compared with the model group): significantly increase; Effect on HGB in rats with residual kidney ([8]; compared with the model group): significantly increase; Effect on hepcidin in rats with residual kidney ([8]; compared with the model group): reduced; HIF-1α protein expression compared with blank control [9]: higher than that of the blank control; fold induction at 30 µM [9]: 4.5 to 8.5; IC50 [10]: > 30 µM; Inhibitory effect on hERG current at the highest test concentration [10]: far from the IC50 value
better effect	46.9	better effect	72.8	> 50	> 50	> 50	> 50	37.83 ± 1.60	116.50 ± 14.43	35.50 ± 6.28	113.67 ± 2123	O=C(O)CNC(=O)c1nc(Cl)c2nc(Oc3ccccc3)ccc2c1O [Link-118, 2-(2-phenoxy-5-hydroxy-8-chloro-1,7-naphthyridine-6-formamido) Acetic Acid]	D (D represents EPO OD value>3)	D (D represents EPO OD value>3)	significantly promote the expression of erythropoietin	8.05 ± 0.46** 10^12/L	45.88 ± 2.87	164 ± 10.99	2.5808 ± 1.0573	9.61 ± 1.06** 10^12/L	Hematocrit ([8]; 10 mg/kg): 57.2 ± 6.67; Hemoglobin ([8]; 10 mg/kg): 203.83 ± 22.83 g/L; Hepcidin ([8]; 10 mg/kg): 2.4472 ± 0.513 ng/mL; Effect on glutamic-oxalacetic transaminase [8]: no significant effect; Effect on liver glutamic-pyruvic aminotransferase [8]: no significant effect; Effect on HCT in rats with residual kidney ([8]; compared with the model group): significantly increase; Effect on HGB in rats with residual kidney ([8]; compared with the model group): significantly increase; Effect on RBC in rats with residual kidney ([8]; compared with the model group): significantly increase; Effect on hepcidin in rats with residual kidney ([8]; compared with the model group): significantly inhibit; Efficacy compared with FG-4592 at the same dose ([8]; rats with residual kidney): better than that of FG-4592; HIF-1α protein expression compared with blank control [9]: higher than that of the blank control; Promoting effect on HIF-1α expression compared with FG4592 [9]: stronger than that of the positive control drug FG4592; fold induction at 30 µM [9]: > 10; IC50 [10]: > 30 µM; Inhibitory effect on hERG current at the highest test concentration [10]: far from the IC50 value
